Results: patent publication US7056908B2, “Pharmaceutical compositions and methods for preventing skin tumor formation and causing regression of existing tumors” (priority 1991, dated 2006)

Columns and labels:
primary keratinocytes [1] = assay: Cornified envelope formation in primary keratinocytes; format: cell-based, mouse; settings: 10 nM staurosporine or 160 nM TPA for 24 hours; 7 day old cultures
Method: Floating and attached cell populations were harvested and cornified envelopes isolated. Data are mean values for three separate dishes±standard error of the mean from one experiment.
7 day old primary keratinocytes were cultured with or without 60 nM bryostatin for 15 hours. […] Each data bar is the average value from duplicate dishes with the range indicated by error bars.

SP-1 cells [2] = assay: Cornified envelope formation in SP-1 cells; format: cell-based, mouse; settings: 1.4 mM Ca2+ medium, 3 days
Method: (§1) Cornified Envelope Quantitation. Keratinocytes were analyzed for cornified envelope formation as described (Nagae, S. et al, “Effect of retinoic acid on cornified envelope formation: difference between spontaneous envelope formation in vivo or in vitro and expression of envelope competence,” J. Invest., Dermatol., 89: 51–58, 1987), with minor modifications. Floating cells were harvested by collecting culture medium from each 60 mm dish and combining with two washes using phosphate-buffered saline without Ca^2+ and Ms^+2 (PBS). Cells were pelleted for 5 minutes at 1000 rpm in a benchtop clinical centrifuge and resuspended in 100 μl of lysis buffer (2% sodium dodecyl sulfate (SDS) and 20 mM dithiothreitol in PBS). Attached cells were harvested in 250 μl lysis buffer, combined with the preparation of floating cells, and incubated at 95° for 10 minutes. The non-solubilized, intact cornified envelopes, characteristic of terminally differentiated keratinocytes, were counted using a hemocytometer (Nagae, S. et al, “Effect of retinoic acid on cornified envelope formation: difference between spontaneous envelope formation in vivo or in vitro and expression of envelope competence,” J. Invest. Dermatol., 89: 51–58, 1987).
(§2) Cornified envelope formation was also determined in cultures of staurosporine-treated neoplastic cells. […]

308 cells = assay: Cornified envelope formation in 308 cells; format: cell-based, mouse; settings: 1.4 mM Ca2+ medium, 3 days
Method: as §1, §2

primary keratinocytes [3] = format: cell-based, mouse
Method: EGF binding was assessed in 6-well tissue culture dishes plated at a cell density of 2.5×10^6 cells/well (Strickland, J. E. et al, “Interaction of epidermal growth factor with basal and differentiating epidermal cells of mice resistant and sensitive to carcinogenesis,” Carcinogenesis, 5: 735–740, 1984). […] A second set of cultures received, in addition, 1 μg/ml unlabelled EGF to assess non-specific binding of radioactive ligand. Following the incubation period, cultures were washed 4 times with ice-cold binding buffer, harvested in 1.5 ml lysis buffer (0.1 M tris (pH 7.4), 0.5% SDS, 1 mM EDTA), and radioactivity determined by scintillation counting.
Exposure of a variety of cultured cell types to TPA results in inhibition of EGF binding which is attributed to PKC-mediated phosphorylation of the EGF receptor (Diamond, L., “Tumor promoters and cell transformation,” In: D. Grunberger and S. P. Goff. (eds.), Mechanisms of Cellular Transformation by Carcinogenic Agents, pp. 73–133, New York: Pergamon Press. 1987).
Each point is the mean of trilpicate dishes±standard error of the mean.

SP-1 cells [4] = assay: Epidermal transglutaminase activity in neoplastic keratinocytes; format: cell-based, mouse; settings: 24 hours
[5] = tested on: grafted SP-1 mouse papilloma cells; assay: Tumor formation from grafted SP-1 papilloma cells on nude mice, topical treatment; format: in vivo; settings: 6.25 nmoles/treatment
Method: For grafting, BALB/c-derived nude mice, approximately two months-old, were used as hosts. Animals were anesthetized with Nembutal and sterile surgical technique was used. 0.5×10^6 SP-1 or 308 cells were grafted along with 6–8×10^6 primary SENCAR mouse dermal fibroblasts. […] Cells were removed from culture dishes by treatment with 0.25% trypsin-0.01% EDTA for approximately 10 min. at 36° and washed with medium. Suspensions of papilloma cells and primary dermal fibroblasts were centrifuged 5 min. at 1000 rpm, the medium aspirated, and the cell pellet applied to the graft bed using a sterile plastic transfer pipet. Graft tumors were measured weekly, using calipers, starting three weeks after grafting and for at least 5 additional weeks thereafter. As an approximate tumor volume, the height was multiplied by the smallest and largest lateral measurements. Data are expressed as means i standard error of the mean of approximate tumor volume in mm^3.
Five mice in each group were grafted Feb. 28, 1990 with 0.5×10^6 SP-1 cells+6×10^6 primary SENCAR mouse dermal fibroblasts.
Tumor measurements were begun three weeks after grafting and continued for eight weeks.
Ten mice in each group were grafted Mar. 22, 1990 with 0.5×10^6 SP-1 cells+6×10^6 primary SENCAR mouse dermal fibroblasts.
Ten mice in each group were grafted May 17, 1990 with 0.5×10^6 SP-1 cells+6×10^6 primary SENCAR mouse dermal fibroblasts. […]

primary keratinocytes [6] = assay: Ornithine decarboxylase activity in primary keratinocytes; format: cell-based, mouse; settings: 5 hours exposure
Method: Enzyme Assays. Activity of epidermal transglutaminase was determined by measuring cross-linking of ^3H-putrescine to dimethylcasein (20). Cell lysates were incubated at […] for 10 minutes to inactivate tissue transglutaminase. Ornithine decarboxylase activity of cell lysates was determined by quantifying release of ^14CO2 from ^14C-ornithine (Sako, T. et al, “Partial parallelism and partial blockade by bryostatin 1 of effects of phorbol ester tumor promoters on primary mouse epidermal cells,” Cancer Res., 47: 5445–5450, 1987).
Each point is the mean for four dishes±standard error of the mean from one experiment. Similar results were obtained in an additional experiment. As with staurosporine-mediated induction of transglutaminase, this response is restricted to a narrow dose range between 5 and 10 nM.

[7] = tested on: human bladder carcinoma cells; settings: systemic administration at 1/10 or 1/20 the maximum tolerated dose; cited from earlier work
primary keratinocytes [8] = assay: Cell toxicity by trypan blue exclusion; format: cell-based, mouse
Method: Miscellaneous Assays. Cell toxicity was determined using trypan blue exclusion as a marker for viable cells. Cells growing in 60 mm culture dishes were washed once with PBS, incubated at room temperature with 1 ml 0.4% trypan blue in normal saline (GIBCO, Rockville, Md.), washed twice with PBS, then placed on ice until cells were counted. Protein in cell lysates was determined using a commercial colorimetric assay (Bio-Rad Laboratories, Richmond, Calif.).
Phase-contrast photomicrographs were taken at the indicated times after beginning treatment. Similar results were obtained in three additional experiments. Magnification was ×90.

Row | SMILES | increase in cornified envelopes relative to control cultures (primary keratinocytes [1]) [fold] | cornified envelope formation (SP-1 cells [2]; 160 nM TPA) | cornified envelope formation (308 cells; 160 nM TPA) | reduction of 125I-EGF binding relative to controls (primary keratinocytes [3]) [%] | effect on epidermal transglutaminase activity (SP-1 cells [4]; any dose ranging from 10 pM to 10 μM) | effect of higher doses on papilloma growth [5] | ornithine decarboxylase activity (primary keratinocytes [6]) | induction of cornified envelopes (SP-1 cells [2]; 10 nM staurosporine) [fold] | induction of cornified envelopes (308 cells; 10 nM staurosporine) [fold] | retardation of tumor growth [7] | maximum induction of epidermal transglutaminase activity (SP-1 cells [4]; 100 nM, 5 day old SP-1 cells) [fold] | cells trypan blue positive (primary keratinocytes [8]; 7.5 hour exposure to 1 μM staurosporine) [%] | cells that took up trypan blue (primary keratinocytes [8]; ≦10 nM staurosporine) [%]
1 | CCCCCCCCCCCCCC(=O)O[C@@H]1[C@@H](C)[C@@]2(O)[C@@H](C=C(CO)C[C@]3(O)C(=O)C(C)=C[C@@H]23)[C@H]2C(C)(C)[C@]12OC(C)=O [TPA, 12-0-tetradecanoylphorbol-13-acetate, reference compound] | 4 | not induced | not induced | 94 | no detectable effect | – | – | – | – | – | – | – | –
2 | CN[C@@H]1C[C@H]2O[C@@](C)([C@@H]1OC)n1c3ccccc3c3c4c(c5c6ccccc6n2c5c31)C(=O)NC4 [staurosporine] | – | – | – | – | – | appear to stimulate papilloma growth | induction of ornithine decarboxylase activity | 10 | 60 | approximately 60% | 50 | 74 | < 5
